Key:
Conditions in all cases: Hit No
[1] = biological target: G/T mismatch-specific thymine DNA glycosylase (Homo sapiens) (UniProt Q13569);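 also: human TDG cleavage of quenched duplex DNA oligonucleotides coupled to APE1, strand release read as fluorescence at 594 nm, inhibition of TDG activity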
Description: Inhibition of TDG by quantifying inhibition of TDG-mediated cleavage and dissociation of quenched duplex DNA oligonucleotides, measured as fluorescence at 594 nm. To generate a functional strand incision and increase turn-over this assay is coupled to APE1.

[2] = biological target: T1, Single-strand selective monofunctional uracil DNA glycosylase (Homo sapiens) (UniProt Q53HV7);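 also: enzymatic SMUG1 assay coupled with APE1, reading fluorescence at 594 nm released when a quenched double-stranded DNA oligonucleotide substrate is cleaved and separated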
T1 sequence (whole entry): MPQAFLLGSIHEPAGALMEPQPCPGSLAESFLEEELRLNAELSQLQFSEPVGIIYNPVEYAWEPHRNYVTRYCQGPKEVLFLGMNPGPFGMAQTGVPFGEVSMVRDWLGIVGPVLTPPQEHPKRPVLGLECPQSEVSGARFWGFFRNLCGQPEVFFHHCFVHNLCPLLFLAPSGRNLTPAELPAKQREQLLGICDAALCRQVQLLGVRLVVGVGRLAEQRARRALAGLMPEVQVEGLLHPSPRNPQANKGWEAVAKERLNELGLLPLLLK
Description: Inhibition of SMUG1 by quantifying inhibition of SMUG1-mediated cleavage and dissociation of quenched duplex DNA oligonucleotides, measured as fluorescence at 594 nm. To generate a functional strand incision and increase turn-over this assay is coupled to APE1.

[3] = biological target: T2, Adenine DNA glycosylase (Homo sapiens) (UniProt Q9UIF7);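 also: human MUTYH activity read as 594 nm fluorescence from cleavage and release of a quenched DNA duplex, coupled with APE1 for strand incision, lower signal meaning inhibition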
T2 sequence (whole entry): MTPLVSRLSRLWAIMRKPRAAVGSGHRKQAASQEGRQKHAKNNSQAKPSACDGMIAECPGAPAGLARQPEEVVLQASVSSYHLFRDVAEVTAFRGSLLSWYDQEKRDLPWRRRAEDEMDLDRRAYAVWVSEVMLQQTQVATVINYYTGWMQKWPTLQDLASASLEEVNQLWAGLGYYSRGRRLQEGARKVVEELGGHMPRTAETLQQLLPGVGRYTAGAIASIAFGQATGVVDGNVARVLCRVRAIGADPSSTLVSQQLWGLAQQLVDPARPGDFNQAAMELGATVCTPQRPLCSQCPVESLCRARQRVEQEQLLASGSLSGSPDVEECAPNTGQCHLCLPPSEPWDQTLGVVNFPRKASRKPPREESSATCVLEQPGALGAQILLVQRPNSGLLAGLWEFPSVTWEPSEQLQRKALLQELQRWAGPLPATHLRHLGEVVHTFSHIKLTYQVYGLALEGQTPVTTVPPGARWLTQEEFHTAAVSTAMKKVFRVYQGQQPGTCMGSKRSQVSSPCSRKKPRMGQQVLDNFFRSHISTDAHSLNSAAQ
Description: Inhibition of MUTYH by quantifying inhibition of MUTYH-mediated cleavage and dissociation of quenched duplex DNA oligonucleotides, measured as fluorescence at 594 nm. To generate a functional strand incision and increase turn-over this assay is coupled to APE1.

[4] = biological target: T3, Endonuclease III-like protein 1 (Homo sapiens) (UniProt P78549);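 also: enzyme assay tracking NTHL1 cutting and release of a quenched double-stranded DNA oligo substrate, read as fluorescence at 594 nm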
T3 sequence (whole entry): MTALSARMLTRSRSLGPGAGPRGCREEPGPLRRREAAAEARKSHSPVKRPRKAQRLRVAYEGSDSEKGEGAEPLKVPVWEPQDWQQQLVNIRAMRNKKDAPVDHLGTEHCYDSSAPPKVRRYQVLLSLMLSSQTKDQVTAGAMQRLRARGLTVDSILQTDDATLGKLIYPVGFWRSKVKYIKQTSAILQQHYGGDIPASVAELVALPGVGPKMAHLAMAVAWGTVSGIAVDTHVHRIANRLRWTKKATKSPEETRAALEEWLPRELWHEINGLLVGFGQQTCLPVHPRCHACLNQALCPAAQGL
Description: Inhibition of NTHL1 by quantifying inhibition of NTHL1-mediated cleavage and dissociation of quenched duplex DNA oligonucleotides, measured as fluorescence at 594 nm.

[5] = biological target: T4, Endonuclease 8-like 2 (Homo sapiens) (UniProt Q969S2);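 also: fluorescence at 594 nm reports NEIL2 cutting and release of a quenched double-stranded DNA oligo substrate, reduced signal read as inhibition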
T4 sequence (whole entry): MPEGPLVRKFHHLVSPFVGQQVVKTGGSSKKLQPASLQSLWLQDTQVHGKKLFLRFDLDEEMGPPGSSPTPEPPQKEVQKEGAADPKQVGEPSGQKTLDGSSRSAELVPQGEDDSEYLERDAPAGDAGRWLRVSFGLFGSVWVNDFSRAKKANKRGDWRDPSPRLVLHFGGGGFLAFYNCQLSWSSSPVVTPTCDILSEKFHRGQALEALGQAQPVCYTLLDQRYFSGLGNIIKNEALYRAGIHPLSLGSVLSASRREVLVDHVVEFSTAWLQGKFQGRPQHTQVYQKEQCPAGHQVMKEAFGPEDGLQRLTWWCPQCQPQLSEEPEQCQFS
Description: Inhibition of NEIL2 by quantifying inhibition of NEIL2-mediated cleavage and dissociation of quenched duplex DNA oligonucleotides, measured as fluorescence at 594 nm.

[6] = biological target: Uracil-DNA glycosylase (Homo sapiens) (UniProt P13051);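 also: UNG excision on a quenched double-stranded DNA oligo probe, with APE1 added for strand incision and turnover, read as fluorescence at 594 nm as strands separate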
Description: Inhibition of UNG by quantifying inhibition of UNG-mediated cleavage and dissociation of quenched duplex DNA oligonucleotides, measured as fluorescence at 594 nm. To generate a functional strand incision and increase turn-over this assay is coupled to APE1.

[7] = biological target: Endonuclease 8-like 1 (Homo sapiens) (UniProt Q96FI4);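 also: fluorescence at 594 nm from quenched duplex DNA oligonucleotides released by NEIL1 cleavage and strand separation, reported as reduction of this enzyme activity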
Description: Inhibition of NEIL1 by quantifying inhibition of NEIL1-mediated cleavage and dissociation of quenched duplex DNA oligonucleotides, measured as fluorescence at 594 nm.

[8] = biological target: Methyl-CpG-binding domain protein 4 (Homo sapiens) (UniProt O95243);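 also: MBD4 activity read as fluorescence at 594 nm from cleavage and release of a quenched duplex DNA oligonucleotide, with APE1 coupled to incise the strand and raise turnover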
Description: Inhibition of MBD4 by quantifying inhibition of MBD4-mediated cleavage and dissociation of quenched duplex DNA oligonucleotides, measured as fluorescence at 594 nm. To generate a functional strand incision and increase turn-over this assay is coupled to APE1.

[9] = biological target: N-glycosylase/DNA lyase (Homo sapiens) (UniProt O15527);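 also: OGG1 cleavage of a quenched duplex DNA oligonucleotide, coupled to APE1 for strand incision, read as fluorescence at 594 nm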
Sequence of N-glycosylase/DNA lyase (Homo sapiens) (O15527 whole entry): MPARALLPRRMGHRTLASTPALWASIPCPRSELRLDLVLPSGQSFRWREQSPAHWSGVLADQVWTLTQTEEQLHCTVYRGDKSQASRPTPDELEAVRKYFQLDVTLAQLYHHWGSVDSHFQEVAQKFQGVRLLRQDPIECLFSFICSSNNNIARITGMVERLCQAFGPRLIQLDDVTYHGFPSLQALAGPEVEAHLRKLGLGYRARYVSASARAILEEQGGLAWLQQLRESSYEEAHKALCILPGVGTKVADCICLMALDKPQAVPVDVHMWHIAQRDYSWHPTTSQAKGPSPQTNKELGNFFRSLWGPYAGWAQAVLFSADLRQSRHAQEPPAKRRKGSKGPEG
Description: Inhibition of OGG1 by quantifying inhibition of OGG1-mediated cleavage and dissociation of quenched duplex DNA oligonucleotides, measured as fluorescence at 594 nm. To generate a functional strand incision and increase turn-over this assay is coupled to APE1.

Sequence of Uracil-DNA glycosylase (Homo sapiens) (P13051 whole entry): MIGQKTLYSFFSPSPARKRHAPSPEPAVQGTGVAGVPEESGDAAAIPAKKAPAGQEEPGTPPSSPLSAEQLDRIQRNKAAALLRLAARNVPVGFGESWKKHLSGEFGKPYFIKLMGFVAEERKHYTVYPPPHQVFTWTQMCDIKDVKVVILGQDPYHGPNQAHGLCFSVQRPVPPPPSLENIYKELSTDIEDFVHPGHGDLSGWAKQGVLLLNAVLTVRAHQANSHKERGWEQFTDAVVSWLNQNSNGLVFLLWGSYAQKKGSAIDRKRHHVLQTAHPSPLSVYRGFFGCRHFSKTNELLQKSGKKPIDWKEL
Sequence of G/T mismatch-specific thymine DNA glycosylase (Homo sapiens) (Q13569 whole entry): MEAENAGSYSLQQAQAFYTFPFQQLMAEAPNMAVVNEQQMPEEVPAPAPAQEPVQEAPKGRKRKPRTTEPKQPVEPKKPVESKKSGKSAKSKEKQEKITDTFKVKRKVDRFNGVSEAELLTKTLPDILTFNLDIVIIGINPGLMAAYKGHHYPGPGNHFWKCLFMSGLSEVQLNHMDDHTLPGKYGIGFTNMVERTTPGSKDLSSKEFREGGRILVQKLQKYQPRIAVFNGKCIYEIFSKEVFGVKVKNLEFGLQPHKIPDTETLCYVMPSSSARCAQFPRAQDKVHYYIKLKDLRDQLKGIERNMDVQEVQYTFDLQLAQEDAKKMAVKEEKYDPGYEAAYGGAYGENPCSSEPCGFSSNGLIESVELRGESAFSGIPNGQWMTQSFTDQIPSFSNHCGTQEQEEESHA
Sequence of Methyl-CpG-binding domain protein 4 (Homo sapiens) (O95243 whole entry, the tested form may be a part): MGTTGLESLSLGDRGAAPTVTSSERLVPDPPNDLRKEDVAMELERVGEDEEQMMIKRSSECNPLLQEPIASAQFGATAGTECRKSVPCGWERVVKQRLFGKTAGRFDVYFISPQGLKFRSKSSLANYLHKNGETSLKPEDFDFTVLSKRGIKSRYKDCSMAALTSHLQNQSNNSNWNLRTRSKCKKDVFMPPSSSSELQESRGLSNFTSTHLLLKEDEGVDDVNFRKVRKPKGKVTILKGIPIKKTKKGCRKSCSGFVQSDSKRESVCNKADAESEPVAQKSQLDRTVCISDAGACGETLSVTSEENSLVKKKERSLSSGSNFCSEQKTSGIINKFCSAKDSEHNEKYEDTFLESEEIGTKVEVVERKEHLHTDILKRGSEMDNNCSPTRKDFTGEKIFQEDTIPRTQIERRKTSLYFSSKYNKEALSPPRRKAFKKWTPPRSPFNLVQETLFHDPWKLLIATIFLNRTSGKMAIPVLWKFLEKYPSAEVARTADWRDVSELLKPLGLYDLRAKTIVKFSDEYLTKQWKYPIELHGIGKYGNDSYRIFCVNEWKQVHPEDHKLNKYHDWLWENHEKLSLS
Sequence of Endonuclease 8-like 1 (Homo sapiens) (Q96FI4 whole entry, the tested form may be a part): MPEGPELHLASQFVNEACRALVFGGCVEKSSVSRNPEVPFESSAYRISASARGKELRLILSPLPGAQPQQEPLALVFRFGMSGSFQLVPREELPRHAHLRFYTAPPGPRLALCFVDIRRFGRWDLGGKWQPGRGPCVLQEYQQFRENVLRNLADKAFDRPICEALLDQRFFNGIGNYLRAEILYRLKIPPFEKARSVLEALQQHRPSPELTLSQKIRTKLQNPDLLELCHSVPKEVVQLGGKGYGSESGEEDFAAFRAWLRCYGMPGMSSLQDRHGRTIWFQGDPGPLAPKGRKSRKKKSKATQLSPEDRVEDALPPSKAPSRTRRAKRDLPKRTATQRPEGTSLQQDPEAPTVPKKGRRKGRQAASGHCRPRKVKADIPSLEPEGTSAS

SMILES	inhibition ([1]; Compound Concentration 10.0 uM) [%]	inhibition ([2]; Compound Concentration 10.0 uM) [%]	inhibition ([3]; Compound Concentration 10.0 uM) [%]	inhibition ([4]; Compound Concentration 10.0 uM) [%]	inhibition ([5]; Compound Concentration 10.0 uM) [%]	inhibition ([6]; Compound Concentration 10.0 uM) [%]	inhibition ([7]; Compound Concentration 10.0 uM) [%]	inhibition ([8]; Compound Concentration 10.0 uM) [%]	inhibition ([9]; Compound Concentration 10.0 uM) [%]	inhibition ([1]; Compound Concentration 1.0 uM) [%]	inhibition ([2]; Compound Concentration 1.0 uM) [%]	inhibition ([3]; Compound Concentration 1.0 uM) [%]	inhibition ([4]; Compound Concentration 1.0 uM) [%]	inhibition ([6]; Compound Concentration 1.0 uM) [%]	inhibition ([7]; Compound Concentration 1.0 uM) [%]	inhibition ([8]; Compound Concentration 1.0 uM) [%]	inhibition ([5]; Compound Concentration 1.0 uM) [%]	inhibition ([9]; Compound Concentration 1.0 uM) [%]
O=C(NNS(=O)(=O)c1ccccc1F)c1cc(F)cc(-c2ccccn2)c1	49.9	15.4	3.72	11.9	3.34	6.14	0.316	80.8	3.57									
CCc1ccccc1C(=O)Nc1n[nH]c2c(C)c(F)c(C3C(C#N)=C(C)N(C)C(C)=C3C#N)cc12	43.7	29.9	2.35	-1.95	5.63	9.1	-6.65	44.9	11.1	36.9	13.1	6.2	13.3	1.06	0.0055	55		
Nc1ncc2c(n1)-c1c([nH]c3ccc(C4CC4)cc13)CCCC2										29.2	19.5	-1.15	2.18	3.77	2.52	4.16	0.505	3.08
COc1ncc(-c2ccc3nccc(-c4ccnnc4)c3c2)cc1NS(=O)(=O)c1ccc(F)cc1F										51.7	-0.754	13.2	9.15	-3.82	-9.77	24	15.6	1.04
Oc1ccc2c3c1O[C@H]1c4[nH]c5c(c4C[C@@]4(O)[C@@H](C2)N(CC2CC2)CC[C@]314)C[C@@]1(O)[C@H]2Cc3ccc(O)c4c3[C@@]1(CCN2CC1CC1)[C@H]5O4	10.6	-7.06	-2.67	5.59	-3.73	1.76	-5.39	-5.37	7.55									
CN1CCN(C(=O)c2ccc3cc2OCCOCCNc2ccn4ncc-3c4n2)CC1	38.5	13.6	-5.82	-5.49	-5.69	1.81	1.85	17.6	2.08									
O=C(O)C1CN(Cc2ccc(OCc3ccc(Cl)c(Cl)c3)cc2)C1	18.1	12.8	19.2	10.7	-3.23	-2.44	5.13	25	-0.266									

Further lines, results first:

inhibition ([1]; Compound Concentration 10.0 uM) [%]	inhibition ([2]; Compound Concentration 10.0 uM) [%]	inhibition ([3]; Compound Concentration 10.0 uM) [%]	inhibition ([4]; Compound Concentration 10.0 uM) [%]	inhibition ([5]; Compound Concentration 10.0 uM) [%]	inhibition ([6]; Compound Concentration 10.0 uM) [%]	inhibition ([7]; Compound Concentration 10.0 uM) [%]	inhibition ([8]; Compound Concentration 10.0 uM) [%]	inhibition ([9]; Compound Concentration 10.0 uM) [%]	inhibition ([1]; Compound Concentration 1.0 uM) [%]	inhibition ([2]; Compound Concentration 1.0 uM) [%]	inhibition ([3]; Compound Concentration 1.0 uM) [%]	inhibition ([4]; Compound Concentration 1.0 uM) [%]	inhibition ([6]; Compound Concentration 1.0 uM) [%]	inhibition ([7]; Compound Concentration 1.0 uM) [%]	inhibition ([8]; Compound Concentration 1.0 uM) [%]	inhibition ([5]; Compound Concentration 1.0 uM) [%]	inhibition ([9]; Compound Concentration 1.0 uM) [%]	SMILES
59.2	20.8	16.2	-4.57	3.59	6.42	-4.99	71.4	20.8										CCO[C@H](COc1ccc(C(F)(F)F)cc1)CSc1ccc(OCC(=O)O)c(C)c1
97.3	18.8	0.715	7.26	-0.234	2.38	-6.95	59.6	-5.77										Cc1cc(-n2nc(Cc3cc(F)cc(C(F)(F)F)c3)nc2C)ccc1C(N)=O
45.9	25.7	30.1	1.48	1.31	3.81	7.67	-2.05	13.2										O=C(O)c1ccc(-c2coc3ncc(-c4ccccc4)cc23)cc1Cl
49.6	15.8	12.1	5.94	4.61	8.04	-4.68	71.5	11.4										CC[C@H](C)C(=O)O[C@H]1C[C@@H](C)C=C2C=C[C@H](C)[C@H](CC[C@@H]3C[C@@H](O)CC(=O)O3)[C@H]21
8.79	-6.46	7.76	22.9	13.9	-9.18	5.2	11.1	-2.45										O=C(O)c1ccc(C(=O)N[C@@H](c2ccc(OC(F)(F)F)c(F)c2)c2ncccc2F)nc1
47.2	9.42	5.63	3.97	-3.29	3.82	-6.95	67.5	6.08										COc1ccc2c(c1)O[C@H](c1ccc(OC)c(OC)c1)C[C@@H]2NC(=O)C1(c2ccc3c(c2)OC(F)(F)O3)CC1
									46.6	15.6	-4.37	4.63	2.12	3.35	54.7	6.91	-4.39	O[C@]1(C(F)(F)F)CCCC[C@H]1Nc1ccc(F)cc1
55.2	23	15.4	-2.6	-2.53	7.59	-3.17	75	16.2										c1ccc(C2CCN(c3cnc4c(N5CCOCC5)nccn34)CC2)cc1

Source: ChEMBL document CHEMBL5665443, “Enzyme Inhibitor Single Concentration assay results for EUbOPEN Chemogenomics Library” (2024)
